How the values were obtained:
[1] = system: HNSCC tumor tissue; experiment: IHC for CD8, PD-L1, PD-1 and FOXP3 positive cells in tumor microenvironment platform; type: cell-based, human; details: T3
Procedure: The effect of Pembrolizumab and Nivolumab on CD8^+ T cell tumor infiltration was then evaluated. Tumor sections from the same patient cultured for 72 hours in the tumor microenvironment platform were treated with Pembrolizumab, Nivolumab, or IgG as control and stained for H&E, Ki67, Caspase 3, and CD8 at day 3 in culture (T3). Baseline staining was determined at TO. […] To further elucidate the effects of the anti-PD-1 antibodies, FACS analysis was performed on tumor tissue from patient 2941 and patient 2942 treated with either Pembrolizumab, Nivolumab, or IgG control. […] By contrast, there was no effect of either Pembrolizumab or Nivolumab on CD8^+ T cell infiltration for patient 2942, further highlighting the differential response between individuals to PD-1 blockade. CD8^+ T cell infiltration was evaluated in the tumor microenvironment platform with tumor tissue from the same patient, and comparisons for control vs Nivo, control vs Pembro, Nivo vs Pembro, and control vs Nivo vs Pembro for multiple patients are shown in FIG. 6 (each line represents results from the tumor microenvironment platform cultured with tumor tissue from a single individual).
The effect of Pembrolizumab and Nivolumab on the expression of immunoregulatory molecules, including PD-1 and FOXP3, in the tumor microenvironment platform tumor microbed was evaluated. Tumor sections from the same patient cultured for 3 days (72 hours) in the tumor microenvironment platform were treated with Pembrolizumab, Nivolumab, or IgG control and stained for CD8, FOXP3, and PD-1 at day 3 in culture (T3). Baseline staining was determined at TO. Results are shown in FIG. 7A for tumor sections from a predicted responder to Pembrolizumab or Nivolumab and FIG. 7B for a predicted non-responder to Pembrolizumab or Nivolumab, as characterized by M-score. There was in increase in the number of PD-1^+ cells in the tumor microbed for both Pembrolizumab and Nivolumab, which was to a greater degree in the case of Nivolumab, when compared to IgG control in the responder (FIG. 7A). There was no change for either Pembrolizumab and Nivolumab in the non-responder (FIG. 7B). The numbers of PD-L1^+ tumor cells, PD-1^+ T cells, FOXP3^+ T-regulatory cells, and CD8^+ T cells were evaluated using the tumor microenvironment platform with tumor tissue from the same patient in Nivolumab, Pembrolizumab, and control conditions, and are summarized in Table 3. Comparisons for control vs Nivo, control vs Pembro, Nivo vs Pembro, and control vs Nivo vs Pembro for multiple patients are shown in FIG. 8 (each line represents results from the tumor microenvironment platform cultured with tumor tissue from a single individual).

[2] = system: Tumor sections; experiment: FACS analysis for CD25, CD127 and FOXP3 expression, tumor sections; type: cell-based, human
Procedure: The effect of treatment with Nivolumab and Pembrolizumab on CD25, CD127, and FOXP3 expression was then evaluated. Tumor sections or PBNCs from the same patient cultured for 3 days in the tumor microenvironment platform were treated with Pembrolizumab, Nivolumab, or IgG control for one day followed by FACS analysis for expression of CD25, CD127, and FOXP3.

Nivolumab was tested. Which “# cells/field PD-1^+” value ([1]; Patient ID 2949, control 1) did it give?
Its value is 3 cells/field.

What about the “# cells/field FOXP3^+” value ([1]; Patient ID 2949, control 5) of the same substance?
The value was 5 cells/field.

What about the “# cells/field PD-L1^+” value ([1]; Patient ID 2949, control 20) of the same substance?
The value was 20 cells/field.

What about the “# cells/field CD8^+” value ([1]; Patient ID 2949, control 50) of the same substance?
Its value is 35 cells/field.

And the “# cells/field PD-1^+” value ([1]; Patient ID 2956, control 0)?
The value was 0 cells/field.

And the “# cells/field CD8^+” value ([1]; Patient ID 2956, control 1)?
The value was 7 cells/field.

What about the “# cells/field PD-L1^+” value ([1]; Patient ID 2956, control 2) of the same substance?
Its value is 3 cells/field.

And the “# cells/field FOXP3^+” value ([1]; Patient ID 2956, control 8)?
The value was 10 cells/field.

And the “# cells/field PD-1^+” value ([1]; Patient ID 2963, control 0)?
The value was 0 cells/field.

What about the “# cells/field CD8^+” value ([1]; Patient ID 2963, control 6) of the same substance?
Its value is 4 cells/field.

What about the “# cells/field FOXP3^+” value ([1]; Patient ID 2963, control 10) of the same substance?
The value was 2 cells/field.

What about the “# cells/field PD-L1^+” value ([1]; Patient ID 2963, control 12) of the same substance?
Its value is 12 cells/field.

And the “# cells/field PD-1^+” value ([1]; Patient ID 2978, control 0)?
Its value is 0 cells/field.

And the “# cells/field FOXP3^+” value ([1]; Patient ID 2978, control 1)?
The value was 1 cells/field.

What about the “# cells/field PD-L1^+” value ([1]; Patient ID 2978, control 1) of the same substance?
The value was 1 cells/field.

What about the “# cells/field CD8^+” value ([1]; Patient ID 2978, control 12) of the same substance?
The value was 17 cells/field.

What about the “# cells/field PD-1^+” value ([1]; Patient ID 2979, control 0) of the same substance?
Its value is 0 cells/field.

And the “# cells/field FOXP3^+” value ([1]; Patient ID 2979, control 2)?
The value was 1 cells/field.

And the “# cells/field PD-L1^+” value ([1]; Patient ID 2979, control 5)?
Its value is 5 cells/field.

And the “# cells/field CD8^+” value ([1]; Patient ID 2979, control 25)?
Its value is 25 cells/field.

What about the “# cells/field PD-1^+” value ([1]; Patient ID 2980, control 0) of the same substance?
The value was 0 cells/field.

And the “# cells/field FOXP3^+” value ([1]; Patient ID 2980, control 1)?
The value was 1 cells/field.

What about the “# cells/field PD-L1^+” value ([1]; Patient ID 2980, control 8) of the same substance?
The value was 1 cells/field.

What about the “# cells/field CD8^+” value ([1]; Patient ID 2980, control 30) of the same substance?
Its value is 10 cells/field.

And the “# cells/field FOXP3^+” value ([1]; Patient ID 2981, control 0)?
Its value is 1 cells/field.

What about the “# cells/field PD-1^+” value ([1]; Patient ID 2981, control 0) of the same substance?
Its value is 0 cells/field.

What about the “# cells/field PD-L1^+” value ([1]; Patient ID 2981, control 0) of the same substance?
The value was 0 cells/field.

What about the “# cells/field CD8^+” value ([1]; Patient ID 2981, control 1) of the same substance?
Its value is 15 cells/field.

And the “CD8^+ T cell infiltration (IHC)” value ([1]; patient 2941, vs IgG control)?
Its value is “increased CD8^+ T cell infiltration”.

And the “number of PD-1^+ cells in the tumor microbed” value ([1]; predicted non-responder, vs IgG control)?
The value was “no change”.

What about the “number of PD-1^+ cells in the tumor microbed” value ([1]; predicted responder, vs IgG control, to a greater degree in the case of Nivolumab) of the same substance?
The value was “increase”.

And the “CD25^+/FOXP3^− Tumor (% total cells)” value ([2]; Non-Responder, control 6.52)?
Its value is 6.45 % total cells.

What about the “CD25^+/CD127^+ Tumor (% total cells)” value ([2]; Non-Responder, control 19.6) of the same substance?
The value was 16.1 % total cells.

What about the “CD25^−/CD127^− Tumor (% total cells)” value ([2]; Non-Responder, control 22.1) of the same substance?
The value was 21.7 % total cells.

What about the “CD25^−/FOXP3^− Tumor (% total cells)” value ([2]; Non-Responder, control 23.6) of the same substance?
Its value is 17.5 % total cells.

And the “CD25^+/CD127^− Tumor (% total cells)” value ([2]; Non-Responder, control 25.4)?
The value was 22.1 % total cells.

And the “CD25^−/CD127^+ Tumor (% total cells)” value ([2]; Non-Responder, control 33.0)?
The value was 40.1 % total cells.

And the “CD25^+/FOXP3^+ Tumor (% total cells)” value ([2]; Non-Responder, control 34.4)?
Its value is 29.5 % total cells.

And the “CD25^− FOXP3^+ Tumor (% total cells)” value ([2]; Non-Responder, control 35.5)?
The value was 46.5 % total cells.

What about the “CD25^−/CD127^− Tumor (% total cells)” value ([2]; Responder, control 12.2) of the same substance?
Its value is 15.6 % total cells.

What about the “CD25^− FOXP3^+ Tumor (% total cells)” value ([2]; Responder, control 18.9) of the same substance?
Its value is 45.7 % total cells.

What about the “CD25^−/FOXP3^− Tumor (% total cells)” value ([2]; Responder, control 20.3) of the same substance?
Its value is 4.62 % total cells.

What about the “CD25^+/CD127^− Tumor (% total cells)” value ([2]; Responder, control 23.0) of the same substance?
The value was 25.4 % total cells.

And the “CD25^−/CD127^+ Tumor (% total cells)” value ([2]; Responder, control 24.3)?
Its value is 31.8 % total cells.

What about the “CD25^+/FOXP3^− Tumor (% total cells)” value ([2]; Responder, control 25.7) of the same substance?
Its value is 5.20 % total cells.

And the “CD25^+/FOXP3^+ Tumor (% total cells)” value ([2]; Responder, control 35.1)?
The value was 44.5 % total cells.

What about the “CD25^+/CD127^+ Tumor (% total cells)” value ([2]; Responder, control 40.5) of the same substance?
The value was 27.2 % total cells.

What about the “functional Treg cells (CD25, CD127, FOXP3 FACS)” value ([2]; platform containing tumor tissue) of the same substance?
Its value is “patient sample-dependent functional Treg cell depression”.
